“Also recorded” adds a separate entry of the source.
What was measured:
[1] = system: DRG neurons; experiment: Calcium imaging of cultured DRG neurons; format: cell-based, mouse
Description: Calcium Imaging of Cultured Dorsal Root Ganglia (DRG) Neurons
DRG neurons were plated on poly-D-lysine/laminin-coated coverslips and cultured for 24 hours. […] Briefly, neurons were loaded with Fura 2-acetomethoxy ester (Molecular Probes) for 30 min in dark at room temperature. After washing, neurons were imaged at 340/380 nm excitation to detect intracellular free calcium. All tests were performed with an experimenter blinded to the genotype.

[2] = system: opioid receptors; conditions: literature; cited from earlier work
[3] = system: awake mice; experiment: Spontaneous pain responses after intrathecal injection in awake mice; format: in vivo, mouse; conditions: awake WT and Mrgpr-clusterΔ−/− mice
Description: BAM 8-22 was purchased from Tocris (Bristol, UK) and was suspended in 0.9% saline. The drug was injected intrathecally under brief isoflurane (1.5%) anesthesia to reduce stress. A 30-gauge, 0.5-inch needle connected to a 10-μl syringe was inserted into one side of the L5 or L6 spinous process at an angle of approximately 20° above the vertebral column and slipped into the groove between the spinous and transverse processes. The needle was moved carefully forward to the intervertebral space.
Intrathecal injection of BAM 8-22 in awake mice elicited short-term (less than 10 min) spontaneous pain responses.

[4] = system: WDR neurons in the dorsal horn of the spinal cord; experiment: Electrophysiological recording of WDR neurons, spinal topical application; format: in vivo, mouse; conditions: for A-latency / A-threshold / C-latency / C-threshold: post-BAM 8-22
Description: The electrophysiological recording of WDR neurons in the dorsal horn of the spinal cord was performed by an experimenter blinded to the genotype as previously described in Guan et al., 2006, J. Neurosci., 26:4298-4307. Mice were paralyzed with pancuronium bromide (0.15 mg/kg, i.p.) during neurophysiological recording. Throughout the experiment, anesthesia was maintained with a constant level of isoflurane (1.5%) carried in med-air. A spinal unit with a cutaneous receptive field located in the plantar area of the hind paw was located by applying mechanical stimuli. WDR neurons were defined as those that responded to both innocuous and noxious mechanical stimuli and that had increasing rates of response to increasing intensities of stimuli. Electrical stimuli were applied through a pair of fine needles inserted subcutaneously across the central plantar area of the hind paw 0.3-0.4 cm apart. Extracellular recordings of individual neurons were obtained by using fine-tip (<1.0 μm) paralyn-coated tungsten micro-electrodes ([…] at 1 kHz).
BAM 8-22 or vehicle control was applied directly to the exposed surface of the spinal cord at the recording segment in a volume of 30-50 μl following pre-drug tests. The effects of BAM 8-22 on the spontaneous activity of WDR neurons were examined within 0-10 min after application. The evoked neuronal responses were recorded 10-30 minutes after drug application. Only one neuron in each animal was used to test the drug effects. The post-drug responses were compared with the pre-drug responses, allowing each neuron to act as its own control.
The number of action potentials (APs) evoked by graded electrical stimuli was compared between two genotypes, using a two-way mixed-model analysis of variance (ANOVA) with Fisher's protected least significant difference (LSD) post-hoc test. Student's t-test was used to compare the recording depth, activation threshold and latency of the first A-fiber-mediated and the first C-fiber-mediated responses, respectively, between the two groups. For wind-up, the raw data were the number of APs in the C-component evoked by each stimulus in a train of repetitive electrical stimulation. Since the number of APs in the C-component varies among WDR neurons, the raw data for each neuron were normalized to the first response in each trial (input) and then averaged. A two-way mixed-model ANOVA was used to compare wind-up and the averaged C-component responses to the last 10 stimuli (7th-16th) of the trial between the two genotypes and between pre- and post-drug conditions. Data are presented as mean±standard error of mean (S.E.M). Statistical comparisons were made using unpaired Student's t-test and differences were considered significant at p<0.05.

[5] = Mrgpr-clusterΔ−/− mice, 0.1 mM, 30-50 μl

## BAM 8-22
[1]; adult mutant (Mrgpr-clusterΔ−/−) DRG neurons
  responses in DRG neurons: no responses
[1]; comparison of WT and MrgprA1GFP/GFP mice
  percentage of DRG neurons responding, WT vs MrgprA1GFP/GFP mice: did not differ significantly
[1]; newborn Mrgpr-clusterΔ−/− mice
  responses in DRG neurons: few or no responses
[2]
  activation of opioid receptors: but not opioid receptors
[3]
  duration of spontaneous pain responses elicited by intrathecal injection: less than 10 min
[4]; Mrgpr-clusterΔ−/− mice
  input value and C-component responses of WDR neurons to 0.5 Hz stimulation: significantly increased
[4]; [5]
  input value and C-component responses of WDR neurons to repetitive (0.5 and 1.0 Hz) stimulation: significantly increased
  wind-up levels (normalized to the input value): not increased
[4]; Mrgpr-clusterΔ−/− mice, n=17, 0.1 mM, intensities >1.0 mA (2.0-5.0 mA)
  C-component responses of WDR neurons to graded electrical stimulation: significantly increased
[4]; Mrgpr-clusterΔ−/−
  A-latency: 12.9 ± 0.6 ms
  A-threshold: 0.19 ± 0.03 mA
  C-latency: 118 ± 4 ms
  C-threshold: 1.9 ± 0.6 mA
[4]; WT WDR neuron, 0.5 Hz, 10-30 min after saline wash-out
  windup response after saline wash-out: partially recovered
[4]; WT mice, n=25, 0.1 mM, 30-50 μl
  wind-up / C-component responses to 0.5 Hz and 1.0 Hz stimulation: significantly attenuated; also recorded: inhibited
[4]; WT mice, n=25, spinal superfusion, 10-30 min after application
  windup of WDR neurons to 0.5 Hz stimulation: significantly attenuated; also recorded: significantly decreased; also recorded: substantially attenuated
[4]; Wild-type
  A-latency: 12.1 ± 0.7 ms
  A-threshold: 0.17 ± 0.03 mA
  C-latency: 115 ± 4 ms
  C-threshold: 1.7 ± 0.4 mA
[4]; either WT or Mrgpr-clusterΔ−/− mice
  threshold and latency of the first C-fiber-mediated action potential: unaffected
